The test system of assay [1] is Enterococcus faecalis A197A. Format: cell-based. The conditions noted are these: all exposure times (5 seconds, 30 seconds, 3 minutes); detection level 99.995% killing.
Protocol: The antibacterial activity of the composition was evaluated by exposing a planktonic culture (in suspension) of Enterococcus faecalis A197A, a resistant bacterial species often isolated from treatment resistant endodontic infections (root canal infections). In the evaluation, cultures were exposed for 5 seconds, 30 seconds, and 3 minutes. Detection level was at 99.995% killing.
A further assay concerns yeasts. The note with it: saturated calcium hydroxide solution (pH≧12.5), in vitro; cited from earlier work.
The next assay concerns enterococci. The conditions noted are these: saturated calcium hydroxide solution (pH≧12.5), in vitro; cited from earlier work.

Each structure is given as a SMILES string.

On to `O=C(O)CN(CCN(CC(=O)O)CC(=O)O)CC(=O)O` [17% EDTA, ethylenediamine tetraacetic acid], for which the “survival of Enterococcus faecalis A197A (cfu %)” value in assay [1] is listed as 100%.
As to `[Ca+2].[OH-].[OH-]` [calcium hydroxide, Calcium hydroxide], in the assay with yeasts, the “time to kill yeasts” value was at most 6 h. Besides, the “time to kill enterococci” value in the assay on enterococci was at most 20 min.

The values above are taken from patent US8455473B2, “Composition and method for irrigation of a prepared dental root canal” (The University of British Columbia, priority 2008, dated 2013).
